Results taken from patent US20240252488A1 (KOREA RESEARCH INSTITUTE OF CHEMICAL TECHNOLOGY, priority 2020, published 2024).

Tests used:
[1] = molecular target: T1, MLKL (Homo sapiens, UniProt Q8NB16); experiment: MLKL degradation assay in HepG2 cell line (western blot); format: cell-based; design: endogenous in cells; host or cells: HepG2 or HaCaT; details: cell line not given; for Degradation assay (Degradation %) 1 μM: compound 1 μM; for Degradation assay (Degradation %) 10 μM: compound 10 μM
T1 sequence (Q8NB16 1-471): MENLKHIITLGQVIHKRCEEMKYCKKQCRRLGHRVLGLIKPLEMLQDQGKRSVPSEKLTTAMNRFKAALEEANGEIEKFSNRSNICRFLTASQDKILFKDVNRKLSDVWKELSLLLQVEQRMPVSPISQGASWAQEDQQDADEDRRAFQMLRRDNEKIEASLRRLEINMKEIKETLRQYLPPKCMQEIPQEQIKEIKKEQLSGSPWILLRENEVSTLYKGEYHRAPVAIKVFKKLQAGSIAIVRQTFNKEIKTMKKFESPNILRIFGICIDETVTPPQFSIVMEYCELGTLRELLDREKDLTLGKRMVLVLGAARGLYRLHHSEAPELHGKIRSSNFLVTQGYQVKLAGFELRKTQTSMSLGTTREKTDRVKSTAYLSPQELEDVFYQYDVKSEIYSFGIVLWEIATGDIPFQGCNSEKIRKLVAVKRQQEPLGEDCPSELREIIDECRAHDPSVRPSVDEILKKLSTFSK
Method in brief: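 After treating HepG2 with test compounds (final 1 μM or 10 μM) for 20-24 h, we lysed cells, equalized protein by BCA and probed MLKL by overnight primary antibody at 4 °C followed by chemiluminescent detection.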

[2] = system: FADD−/− Jurkat cells; experiment: Necroptosis inhibition assay, TNF-α-induced necroptosis (CellTiter-Glo 2.0); format: cell-based, human; details: TNF-α 15 ng/mL; for Necroptosis inhibition assay (Rescue %) 1 μM: compound 1 μM; for Necroptosis inhibition assay (Rescue %) 10 μM: compound 10 μM
Method in brief: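 Necroptosis was triggered by TNF-α at 15 ng/mL final following 30 minutes of compound exposure (0.1, 1 or 10 μM final). Incubation ran 20 to 24 hours at 37° C under 5% CO2; cell ATP was then quantified by luminescence.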

[3] = molecular target: T1, MLKL; experiment: Measurement of binding affinity with MLKL receptor (competitive binding assay, Kd); design: made in house; host or cells: HEK 293 cell line (T7 phage in E. coli BL21-derived host is also described)
Method in brief: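 Competition binding of kinase tagged with DNA for qPCR detection, expressed in HEK 293 cells, against immobilized ligand on beads. Final DMSO 0.9%. Kd derived from kinase amount in eluates measured by qPCR.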

Row | Compound | Degradation assay (Degradation %) 1 μM [1] | Degradation assay (Degradation %) 10 μM [1] | Kd [3] | Necroptosis inhibition assay (Rescue %) 1 μM [2] | Necroptosis inhibition assay (Rescue %) 10 μM [2]
1 | Nc1ncc(-c2cnn(C3CCN(CCC4CCN(C(=O)COc5cccc6c5C(=O)N(C5CCC(=O)NC5=O)C6=O)CC4)CC3)c2)cc1C(=O)OC(C(=O)Nc1ccc(F)cc1)c1ccccc1 (stereo not shown) [TDH-301, 2-((4-fluorophenyl)amino)-2-oxo-1-phenylethyl 2-amino-5-(1-(1-(2-(1-(2-((2-(2,6-dioxopiperidin-3-yl)-1,3-dioxoisoindolin-4-yl)oxy)acetyl)piperidin-4-yl)ethyl)piperidin-4-yl)-1H-pyrazol-4-yl)nicotinate] | 76.3% | 89.97% | 2.9 nM | 61.06% | 26.7%
2 | Nc1ncc(-c2cnn(C3CCN(CCC4CCN(C(=O)CNc5ccc6c(c5)C(=O)N(C5CCC(=O)NC5=O)C6=O)CC4)CC3)c2)cc1C(=O)OC(C(=O)Nc1ccc(F)cc1)c1ccccc1 (stereo not shown) [TDH-302, 2-((4-fluorophenyl)amino)-2-oxo-1-phenylethyl 2-amino-5-(1-(1-(2-(1-((2-(2,6-dioxopiperidin-3-yl)-1,3-dioxoisoindolin-5-yl)glycyl)piperidin-4-yl)ethyl)piperidin-4-yl)-1H-pyrazol-4-yl)nicotinate] | 96.64% | 85.06% | 8.6 nM | 54.15% | 51.56%
3 | Nc1ncc(-c2cnn(C3CCN(CCC4CCN(C(=O)CNc5cccc6c5C(=O)N(C5CCC(=O)NC5=O)C6=O)CC4)CC3)c2)cc1C(=O)OC(C(=O)Nc1ccc(F)cc1)c1ccccc1 (stereo not shown) [TDH-303, 2-((4-fluorophenyl)amino)-2-oxo-1-phenylethyl 2-amino-5-(1-(1-(2-(1-((2-(2,6-dioxopiperidin-3-yl)-1,3-dioxoisoindolin-4-yl)glycyl)piperidin-4-yl)ethyl)piperidin-4-yl)-1H-pyrazol-4-yl)nicotinate] | 82.82% | 82.05% | 13 nM | 10.34% | 17.69%
4 | Nc1ncc(-c2cnn(C3CCN(CC4CN(C(=O)C5CCN(c6cccc7c6C(=O)N(C6CCC(=O)NC6=O)C7=O)CC5)CCO4)CC3)c2)nc1C(=O)OC(C(=O)Nc1ccc(F)cc1)c1ccccc1 (stereo not shown) [TDH-304, 2-((4-fluorophenyl)amino)-2-oxo-1-phenylethyl 3-amino-6-(1-(1-((4-(1-(2-(2,6-dioxopiperidin-3-yl)-1,3-dioxoisoindolin-4-yl)piperidine-4-carbonyl)morpholin-2-yl)methyl)piperidin-4-yl)-1H-pyrazol-4-yl)pyrazine-2-carboxylate] | 85.02% | 84.91% | 2.9 nM | 38.26% | 35.22%
5 | Nc1ncc(-c2cnn(C3CCN(CC4CN(C(=O)C5CCN(c6ccc7c(c6)C(=O)N(C6CCC(=O)NC6=O)C7=O)CC5)CCO4)CC3)c2)nc1C(=O)OC(C(=O)Nc1ccc(F)cc1)c1ccccc1 (stereo not shown) [TDH-305, 2-((4-fluorophenyl)amino)-2-oxo-1-phenylethyl 3-amino-6-(1-(1-((4-(1-(2-(2,6-dioxopiperidin-3-yl)-1,3-dioxoisoindolin-5-yl)piperidine-4-carbonyl)morpholin-2-yl)methyl)piperidin-4-yl)-1H-pyrazol-4-yl)pyrazine-2-carboxylate] | 72.47% | 50.39% | 2.8 nM | 66.84% | 52.42%
6 | Nc1ncc(-c2cnn(C3CCN(CC4CN(C(=O)CNc5cccc6c5C(=O)N(C5CCC(=O)NC5=O)C6=O)CCO4)CC3)c2)nc1C(=O)OC(C(=O)Nc1ccc(F)cc1)c1ccccc1 (stereo not shown) [TDH-306, 2-((4-fluorophenyl)amino)-2-oxo-1-phenylethyl 3-amino-6-(1-(1-((4-((2-(2,6-dioxopiperidin-3-yl)-1,3-dioxoisoindolin-4-yl)glycyl)morpholin-2-yl)methyl)piperidin-4-yl)-1H-pyrazol-4-yl)pyrazine-2-carboxylate] | 62.87% | 45.31% | 5.4 nM | 34.35% | 43.09%
7 | Nc1ncc(-c2cnn(C3CCN(CC4CN(c5ccc6c(c5)C(=O)N(C5CCC(=O)NC5=O)C6=O)CCO4)CC3)c2)nc1C(=O)OC(C(=O)Nc1ccc(F)cc1)c1ccccc1 (stereo not shown) [TDH-311, 2-((4-fluorophenyl)amino)-2-oxo-1-phenylethyl 3-amino-6-(1-(1-((4-(2-(2,6-dioxopiperidin-3-yl)-1,3-dioxoisoindolin-5-yl)morpholin-2-yl)methyl)piperidin-4-yl)-1H-pyrazol-4-yl)pyrazine-2-carboxylate] | 69.38% | 52.38% | 5.3 nM | 57.09% | 39.01%

These reach a lower Kd [3]. Values come first.

Row | Degradation assay (Degradation %) 1 μM [1] | Degradation assay (Degradation %) 10 μM [1] | Kd [3] | Compound | Necroptosis inhibition assay (Rescue %) 1 μM [2] | Necroptosis inhibition assay (Rescue %) 10 μM [2]
8 | 57.38% | 24.79% | 1.6 nM | Nc1ncc(-c2cnn(C3CCN(CC4CN(C(=O)CNc5ccc6c(c5)C(=O)N(C5CCC(=O)NC5=O)C6=O)CCO4)CC3)c2)nc1C(=O)OC(C(=O)Nc1ccc(F)cc1)c1ccccc1 (stereo not shown) [TDH-307, 2-((4-fluorophenyl)amino)-2-oxo-1-phenylethyl 3-amino-6-(1-(1-((4-((2-(2,6-dioxopiperidin-3-yl)-1,3-dioxoisoindolin-5-yl)glycyl)morpholin-2-yl)methyl)piperidin-4-yl)-1H-pyrazol-4-yl)pyrazine-2-carboxylate] | 83.43% | 73.58%
9 | 55.12% | 69.64% | 1.7 nM | Nc1ncc(-c2cnn(C3CCN(CC4CN(C(=O)COc5cccc6c5C(=O)N(C5CCC(=O)NC5=O)C6=O)CCO4)CC3)c2)nc1C(=O)OC(C(=O)Nc1ccc(F)cc1)c1ccccc1 (stereo not shown) [TDH-308, 2-((4-fluorophenyl)amino)-2-oxo-1-phenylethyl 3-amino-6-(1-(1-((4-(2-((2-(2,6-dioxopiperidin-3-yl)-1,3-dioxoisoindolin-4-yl)oxy)acetyl)morpholin-2-yl)methyl)piperidin-4-yl)-1H-pyrazol-4-yl)pyrazine-2-carboxylate] | 76.28% | 56.73%
10 | 76.12% | 77.55% | 2.2 nM | Nc1ncc(-c2cnn(C3CCN(CC4CN(C(=O)COc5ccc6c(c5)C(=O)N(C5CCC(=O)NC5=O)C6=O)CCO4)CC3)c2)nc1C(=O)OC(C(=O)Nc1ccc(F)cc1)c1ccccc1 (stereo not shown) [TDH-309, 2-((4-fluorophenyl)amino)-2-oxo-1-phenylethyl 3-amino-6-(1-(1-((4-(2-((2-(2,6-dioxopiperidin-3-yl)-1,3-dioxoisoindolin-5-yl)oxy)acetyl)morpholin-2-yl)methyl)piperidin-4-yl)-1H-pyrazol-4-yl)pyrazine-2-carboxylate] | 75.1% | 78.37%
11 | 35.97% | 27.19% | 2.6 nM | Nc1ncc(-c2cnn(C3CCN(CC4CN(c5cccc6c5C(=O)N(C5CCC(=O)NC5=O)C6=O)CCO4)CC3)c2)nc1C(=O)OC(C(=O)Nc1ccc(F)cc1)c1ccccc1 (stereo not shown) [TDH-310, 2-((4-fluorophenyl)amino)-2-oxo-1-phenylethyl 3-amino-6-(1-(1-((4-(2-(2,6-dioxopiperidin-3-yl)-1,3-dioxoisoindolin-4-yl)morpholin-2-yl)methyl)piperidin-4-yl)-1H-pyrazol-4-yl)pyrazine-2-carboxylate] | 40.08% | 41.99%
